In patent publication US20240100013A1, “SOTAGLIFLOZIN FOR IMPROVING LEFT ATRIAL FUNCTION” (CHARITÉ-UNIVERSITÄTSMEDIZIN BERLIN, priority 2021, published 2024):

Key:
LA cardiomyocytes [1] = test: Caffeine-induced CaT: SR Ca2+ load, tau of decay and NCX forward-mode activity; type: cell-based, rat
Text: Solutions and chemicals. Chemicals were obtained from Sigma-Aldrich (St. Louis, MO, USA) unless noted otherwise. The dual SGLT1/2 inhibitor sotagliflozin was provided by Lexicon Pharmaceuticals (The Woodlands, TX, USA). Fluorescent dyes Fura-2 AM, Rhod-2 AM, MitoTracker red, MitoTracker green, TMRE and H2-DCF were obtained from Thermo Fisher Scientific (Waltham, MA, USA). Tyrode solution contained (in mM): 130 NaCL, 4 KCl, 2 CaCl, 1 MgCl2, 10 Glucose, 10 HEPES; pH adjusted to 7.4 with NaOH. LA cardiomyocytes were plated on laminin-coated glass coverslips. 20 mM caffeine was added to Tyrode solution to induce sarcoplasmic reticulum (SR) Ca^2+ release and obtain a measure of SR Ca^2+ content. For baseline recordings of Ca^2+ transient (CaT), sarcomere shortening and arrhythmic events (FIGS. 1C-F, 2A-E, 3A-F), Tyrode solution containing 3 mM Ca^2+ was used. For glucose starvation (FIGS. 2H-J, 5A-D), glucose of Tyrode solution was replaced with 30 mM mannitol. For sub-sequent glucose reintroduction, mannitol was replaced with 30 mM glucose (“high glucose condition”).
(§1) Ca^2+ measurements and sarcomere shortening. Radiometric Ca^2+ measurements (excitation: 340 nm and 385 nm, emission: 510±10 nm; [Ca^2+] expressed as the ratio R=F340/F380) were performed either with a CytoCypher MultiCell System (CytoCypher BV, Netherlands; FIGS. 1C-F, 2D-G, 4A-F) or an Axiovert 200 microscope (Zeiss, Oberkochen, Germany) fluorescence imaging assembly (FIGS. 2A-C, 2H-J, 3A-E, 6E-I). LA cardiomyocytes were loaded with Fura-2 for 30 min at room temperature, washed twice with Tyrode solution and transferred to the microscope. Experiments were conducted at 37° C. and CaT were recorded at steady state (following electric stimulation).
(§2) CaT and sarcomere shortening of LA and LV cardiomyocytes were recorded for 10 s at 3 Hz stimulation. See FIGS. 2D-G, 4A-F. Electric stimulation was turned off and spontaneous SR Ca^2+ release events (See Voigt N, Heijman J, Wang Q, Chiang D Y, Li N, Karck M, Wehrens X H T, Nattel S, Dobrev D: “Cellular and molecular mechanisms of atrial arrhythmogenesis in patients with paroxysmal atrial fibrillation,” Circulation 2014, 129(2):145-156) (SCaEs) immediately recorded for a duration of 10 s (FIG. 1C-F). In a sub-set of LA cells, CaT were recorded for 10 s at 1 Hz stimulation. Electric stimulation was turned off, the cells immediately exposed to 20 mM caffeine and the sub-sequent caffeine-induced CaT recorded for 10 s (FIG. 2A-C, 3A-E). Sodium-calcium exchanger (NCX) activity was calculated as previously described. See Hohendanner F, Walther S, Maxwell J T, Kettlewell S, Awad S, Smith G L, Lonchyna V A, Blatter L A: “Inositol-1,4,5-trisphosphate induced Ca^2+ release and excitation-contraction coupling in atrial myocytes from normal and failing hearts,” J Physiol 2015, 593(6):1459-1477.

LA cardiomyocytes [2] = test: Sarcomere shortening of LA cardiomyocytes; type: cell-based, rat
Procedure: as §1, §2

[3] = rats; 30 mg/kg/day; cited from earlier work
LA cardiomyocytes [4] = test: Mitochondrial depolarization (TMRE) in LA cardiomyocytes; type: cell-based, rat; conditions: differences between groups
Procedure: Mitochondrial depolarization. LA cardiomyocytes were loaded with TMRE and MitoTracker green, transferred to an LSM 800 laser scanning microscope and kept in Tyrode's solution containing 2 mM Ca^2+ and 10 nM TMRE. Two-dimensional images of TMRE (excitation: 561 nm, emission: 565-585 nm) and MitoTracker green fluorescence (excitation: 488 nm, emission: 505-525 nm) were acquired for a duration of 6 min (interval: 2 s, resolution: 512×512 px, pixel size: 1.25 μm, pixel time: 1.03 μs, laser intensity: 4%). A binary mask of both channels was derived using a Bernsen thresholding algorithm (ImageJ). Positive pixels of the MitoTracker green image were defined as mitochondria and a positive overlay of the TMRE image assumed to indicate a polarized state. The standard deviation of polarized mitochondria over time was taken as a measure of spatiotemporal oscillation.

With `CCOc1ccc(Cc2cc([C@@H]3O[C@H](SC)[C@@H](O)[C@H](O)[C@H]3O)ccc2Cl)cc1` [sotagliflozin, (2S,3R,4R,5S,6R)-2-(4-chloro-3-(4-ethoxybenzyl)phenyl)-6-(methylthio)tetrahydro-2H-pyran-3,4,5-triol] the “SR Ca2+ load” value (LA cardiomyocytes [1]; HFpEF, 20 mM caffeine) was “no effect”, the “tau of caffeine-induced CaT” value (LA cardiomyocytes [1]; HFpEF, 20 mM caffeine) was “unchanged” and the “tau of decay (paced CaT)” value (LA cardiomyocytes [1]; HFpEF, 1 Hz electric stimulation) was “significantly prolonged”. For the same compound, the “increase of contribution of NCX forward-mode activity on cytosolic Ca2+ removal” value (LA cardiomyocytes [1]; HFpEF, Sota vs vehicle) was −50%, the “contribution of NCX forward-mode activity on cytosolic Ca2+ removal” value (LA cardiomyocytes [1]; HFpEF, vehicle 7.6±0.7, n=14 and 21 cells) was 11.6±0.7% and the “increased forward mode NCX activity” value (LA cardiomyocytes [1]; after chronic treatment, HFpEF vs WT) was “only occurs in HFpEF, but not WT”. For the same compound, the “shortening of time-to-peak and relaxation time” value (LA cardiomyocytes [2]; HFpEF) was “this effect could not be observed”, the diastolic sarcomere length (LA cardiomyocytes [2]; HFpEF, 3 Hz, 5 mM extracellular [Ca2+]) was “significant increase” and the “Ca2+ sensitivity” value (LA cardiomyocytes [2]; HFpEF, relationship of CaT and sarcomere shortening) was “reduced”. The sarcomere relaxation time (LA cardiomyocytes [2]; WT) was “shortened”, the sarcomere shortening time-to-peak (LA cardiomyocytes [2]; WT) was “shortened” and the urinary glucose secretion [3] was “near maximal”. For the same compound, the “incidence and spatial distribution of mitochondrial depolarizations” value (LA cardiomyocytes [4]) was “could not be detected”.
